In patent US10253069B2, “Compositions and methods for regulating arterial tone” (University of Virginia Patent Foundation, priority 2012, dated 2019):

Experiments:
TD arteries = assay: Nitric oxide diffusion assay, ex vivo TD arteries; set-up: species or system mouse; settings: isolated TD arteries
Protocol: (§1) Anaerobic aqueous NO was generated by bubbling 100% helium into a beaker containing deionized water. Following 30 minutes, 99.5% NO′ gas was bubbled for an additional 40 minutes giving a final saturated concentration of approximately 1.7 mM.
(§2) Both ECs and SMCs were cultured on 12 mm Transwells as described above. After three days of co-culture, media was removed and replaced with 500 μL of Krebs buffer on each side of the Transwells and cells were allowed to equilibrate for 15 minutes. Next, 100 μL of anaerobic aqueous NO was added to the 500 μLs of Kreb's buffer on the EC side of the Transwell. After 5 minutes, 100 μL of Krebs buffer was immediately removed and injected into a Seivers Nitric Oxide Analyzer (NOA). Data was quantified using Origin Pro 6.0 by calculating the area under the peak over time. Differences between samples were expressed as μM change. For experiments on ex vivo samples, TD arteries were cannulated (as described above) in puddle of 100 μL of Krebs buffer created by parafilm. […] Data was quantified using Origin Pro 6.0 by calculating the area under the peak over time. Differences between samples were expressed as μM change.

[1] = system: VCCC (human coronary ECs and SMCs); assay: Nitric oxide diffusion assay, VCCC; format: cell-based
Protocol: as §1, §2

[2] = system: thoracodorsal (TD) arteries; assay: Vasoreactivity of cannulated, pressurized TD arteries (pressure myograph) after siRNA transfection or PTU/L-NAME treatment; set-up: species or system mouse; settings: for Contraction to 5-HT 50 nM post 15 min, % initial diameter: 15 minutes after stimulation, PTU 50 μM, n = 3; for PE CCRC Emax (% initial diameter): phenylephrine, TD arteries pretreated with PTU (50 μM) and/or L-NAME (100 μM)
Protocol: TD arteries (maximal internal diameter 261.7±4.2 μm) were isolated, cannulated in a pressure myograph (Danish MyoTechnology) and secured with 10.0 nylon sutures as described in^7. The TD arteries were placed in a circulating bath of Krebs-HEPES and perfused with Krebs-HEPES supplemented with 1% BSA. Arteries were maintained in a no flow state and pressurized at 80 mmHg as previously described^1. […] Acetylcholine (1 μM) was added to the bath to verify the integrity of the endothelium. […] At the end of the experiments, the solution was replaced by a calcium-free Krebs supplemented with 2 mM ethylenbis-(oxyethylenenitrolo) tetra-acetic acid (EGTA) and 10 μM sodium nitroprussiate in order to measure the maximal diameter. […] Internal diameters were calculated and results are expressed as a percentage of initial inner diameter (for PE dose responses) or percent dilation (for Ach dose responses). […] The TD arteries were isolated and cannulated as described above. The vessel lumen was perfused with Krebs-HEPES buffer supplemented with 1% BSA to flush out red blood cells and 100 μL of Nucleofector transfection reagent (HCAEC Nucleofector kit, Lonza) containing 10 nM control, Hb α or CytB5R3 siRNAs (see Table below) was perfused into the lumen. Arteries were then removed from the cannula and the ends ligated with 10-0 nylon sutures to maintain the transfection reagent and siRNA in the blood vessel lumen. Ligated arteries were then transferred to a transfection cuvette (Lonza) containing 100 μL Nucleofector transfection reagent and electroporated using the Nucleofector II Device (Lonza) using setting A-034. Transfected TDA were removed from cuvettes, re-cannulated and perfused with RPMI media+1% BSA to remove residual transfection reagent and siRNA. Arteries were cultured for 15-18 hours at 37° C. in RPMI+1% BSA and used for vasoreactivity studies or processed for immunofluorescence microscopy. To eliminate variability of transfection efficiency and vessel viability, one control siRNA vessel and one Hb α/CytBSR3 vessel were transfected daily.

thoracodorsal arteries = assay: Pressure myography on thoracodorsal arteries, phenylephrine dose response with peptides; set-up: species or system mouse
[3] = system: eNOS phosphorylation on serine 1177; assay: Western blot of pS1177 eNOS in coronary endothelial cells; format: cell-based, human; settings: 5 μmol/L peptide, 20 minutes
Protocol: (§3) Primary coronary endothelial cells (Lonza) were cultured on plastic 6-well dishes as previously described^9. For studies involving basal NO release, endothelial cells were incubated with 5 μmol/L of Scr X or Hb α X for 20 minutes followed by medium collection and nitrite measurements as described below. For bradykinin studies, coronary endothelial cells were grown to confluence followed by serum starvation overnight in a cocktail of Lonza EGM-2 medium supplemented with EGM-2 bullet kit and Opti MEM reduced growth medium using a ratio of 1:9 respectively. The next day, endothelial cells were incubated with Scr X or Hb α X peptide for 20 minutes followed by the addition of 10 μM bradykinin (Sigma) for 5 minutes followed by medium collection for nitrite measurements as described below.
Endothelial cells were harvested in lysis buffer, sonicated and subjected to electrophoresis using 10% Bis-Tris gels (Invitrogen) as previously described^13. Proteins were transferred to nitrocellulose, incubated with phospho-eNOS S1177 (BD Biosciences) or total eNOS (Sigma) and visualized and quantitated using Li-Cor Odyssey Imager as previously described^14.

[4] = system: human coronary endothelial cells; assay: Nitrite measurements from media of coronary endothelial cells; format: cell-based; settings: unstimulated cells
Protocol: as §3
Quantitation of nitrite in culture medium was measured by chemiluminescence using a Sievers nitric oxide analyzer according to manufacturer's instructions. Quantitation of peaks was analyzed using Origin Pro 6.0 as previously described^9.

Compound | NO diffusion across the vessel wall (TD arteries) | NO diffusion in the VCCC [1] | Contraction to 5-HT 50 nM post 15 min, % initial diameter ([2]; TD arteries) [n.s. % initial diameter] | PE CCRC Emax (% initial diameter) [2] [% initial diameter] | other results
[C-]#[O+] [carbon monoxide] | increased NO diffusion | increase in NO diffusion |  |  | 
CCCc1cc(=O)[nH]c(=S)[nH]1 [PTU, propylthiouracil] | increased NO diffusion | increased NO diffusion | 64.1 ± 4.5 | 91.4 ± 2.5 | Reversibility of the PTU effect with L-thyroxine supplementation ([2]; L-thyroxin 50 μM + PTU, 10 μM PE stimulation): not reversible; Basal tone ([2]; TD arteries): No difference in basal tone; Ach CCRC Emax (% Dilation) ([2]; acetylcholine, TD arteries pretreated with PTU): 94.9 ± 1.7 % Dilation; PE and Ach responses with the addition of L-NAME ([2]; plus NOS inhibitor L-NAME, TD arteries): comparable to control conditions
COC(=O)[C@@H](N)CCCNC(=N)N[N+](=O)[O-] [L-NAME, L-N^G-nitroarginine methyl ester] |  |  | 57.0 ± 3.29 | 62.6 ± 6.1 | 
Scrambled control peptide FPYFSTKLTT (SEQ ID NO:40) with HIV-tat tag YGRKKRRQRRR at the N-terminus [Scr X] |  |  |  |  | Constriction in phenylephrine dose response curves (thoracodorsal arteries; compared to untreated arteries): no difference from control; Emax, vascular reactivity dose response curves (thoracodorsal arteries; phenylephrine dose response, thoracodorsal arteries perfused with peptide): 38.3 ± 2.4 % initial diameter; Basal eNOS phosphorylation on serine 1177 [3]: no differences; Accumulation of nitrite in the culture medium, basal [4]: no differences
